Source: the supplement of paper PMC4862054
Where “and” joins values, the source holds several entries; their conditions need not be identical. Equal entries are not always repeated.

Columns and labels:
Details in all cases: incubation time: 72 h
[1] = test system: CAL-51; experiment: normalised viability (% of control), CellTiter-Blue; higher = more viable cells (about 100 = DMSO control)
Procedure: (§1)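 DSRT, CellTiter-Blue viability, 72 h incubation. Signal is normalised to DMSO and benzethonium chloride controls. Value is the normalised response at dose 7.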

[2] = test system: DU-4475; experiment: as above
Procedure: as §1

[3] = test system: CAL-148; experiment: as above
Procedure: as §1

[4] = test system: MDA-MB-453; experiment: as above
Procedure: as §1

[5] = test system: MDA-MB-468; experiment: normalised response (% of control), CellTiter-Glo; higher = more viable cells (100 = DMSO, 0 = benzethonium chloride kill control)
Method in brief: (§2)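 Each value is the plate-normalised signal at one concentration of the series. Breast cancer cell lines (20 µl suspension) were incubated 72 h in 384-well plates with compound at 5 concentrations in 10-fold steps over a compound-specific 10,000-fold range. CellTox Green and then CellTiter-Glo were read, and each plate was scaled to 0.1 % DMSO (100) and a positive kill control (0).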

[6] = test system: BT-474; experiment: as above
Method in brief: as §2

[7] = test system: HCC1937; experiment: as above
Method in brief: as §2

[8] = test system: CAL-51; experiment: as above
Method in brief: as §2

[9] = test system: BT-549; experiment: as above
Method in brief: as §2

[10] = test system: MDA-MB-231; experiment: as above
Method in brief: as §2

[11] = test system: HCC1599; experiment: as above
Method in brief: as §2

[12] = test system: Hs578T; experiment: as above
Method in brief: as §2

[13] = test system: SK-BR-3; experiment: as above
Method in brief: as §2

[14] = test system: MDA-MB-436; experiment: as above
Method in brief: as §2

[15] = test system: MFM-223; experiment: as above
Method in brief: as §2

[16] = test system: HDQ-P1; experiment: as above
Method in brief: as §2

[17] = test system: CAL-85-1; experiment: as above
Method in brief: as §2

[18] = test system: HCC1143; experiment: as above
Method in brief: as §2

[19] = test system: MCF-10A; experiment: as above
Method in brief: as §2

[20] = test system: DU-4475; experiment: as above
Method in brief: as §2

[21] = test system: CAL-120; experiment: as above
Method in brief: as §2

[22] = test system: CAL-148; experiment: as above
Method in brief: as §2

[23] = test system: MDA-MB-453; experiment: as above
Method in brief: as §2

[24] = test system: CAL-51; experiment: normalised viability (% of control), CellTiter-Blue; higher = more viable cells (about 100 = DMSO control); remark: listed apart in the source
Procedure: (§3)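 DSRT, CellTiter-Blue viability, 72 h incubation. Signal is normalised to DMSO and benzethonium chloride controls. Value is the normalised response at dose 9.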

[25] = test system: HDQ-P1; experiment: as above
Procedure: as §3

[26] = test system: CAL-85-1; experiment: as above
Procedure: as §3

[27] = test system: DU-4475; experiment: as above; remark: listed apart in the source
Procedure: as §3

[28] = test system: CAL-148; experiment: as above; remark: listed apart in the source
Procedure: as §3

[29] = test system: MDA-MB-453; experiment: as above; remark: listed apart in the source
Procedure: as §3

SMILES | normalised viability [1] | normalised viability [2] | normalised viability [3] | normalised viability [4] | normalised response [5] [%] | normalised response [6] [%] | normalised response [7] [%] | normalised response [8] [%] | normalised response [9] [%] | normalised response [10] [%] | normalised response [11] [%] | normalised response [12] [%] | normalised response [13] [%] | normalised response [14] [%] | normalised response [15] [%] | normalised response [16] [%] | normalised response [17] [%] | normalised response [18] [%] | normalised response [19] [%] | normalised response [20] [%] | normalised response [21] [%] | normalised response [22] [%] | normalised response [23] [%] | normalised viability [24] [%] | normalised viability [25] [%] | normalised viability [26] [%] | normalised viability [27] [%] | normalised viability [28] [%] | normalised viability [29] [%]
Cn1cc(C2=Nc3cc(NC(=O)C(N)C4CCCCC4)cc4c3C2=CNNC4=O)cn1 (stereo not drawn) (1000 nM) | 87.8% | 72.1% | 62.4% | 36.9% | 30.7 | 68.5 | 87 | 81.6 | 25.7 | 63.7 | 11.9 | 41.3 | 17.8 | 53.3 | 46.4 | 85.2 | 36.8 | 64.5 | 74.5 | 89 | 69.7 | 83.8 | 35.9 |  |  |  |  |  | 
Cn1cc(C2=Nc3cc(NC(=O)C(N)C4CCCCC4)cc4c3C2=CNNC4=O)cn1 (stereo not drawn) (10000 nM) |  |  |  |  |  |  |  |  |  |  |  |  |  |  |  |  |  |  |  |  |  |  |  | 30 | 35.2 | 48.9 | 41.9 | 28.1 | 16.3
COc1cc2c(cc1O)CC[C@@H]1[C@@H]2CC[C@]2(C)[C@@H](O)CC[C@@H]12 [2-methoxyestradiol] (1000 nM) | 107% | 89.5% | 89.7% | 53.3% | 95.1 | 68.9 | 89.6 | 92.9 | 49.5 | 73.9 | 96.6 | 77.3 | 83.2 | 74.2 | 75.3 | 99.9 | 77.6 | 82.5 | 96 | 98.5 | 81.8 | 96.4 | 72.7 |  |  |  |  |  | 
Cc1sc2c(c1C)C(c1ccc(Cl)cc1)=N[C@@H](CC(=O)OC(C)(C)C)c1nnc(C)n1-2 [(+)JQ1] (1000 nM) | 84.1% | 12.4% | 56.5% | 21.9% | 55.1 | 69.9 | 80.8 | 103 | 43.5 | 77.2 | 80 | 48.8 | 66.9 | 83.2 | 58.2 | 68.5 | 38.7 | 72.8 | 57.1 | 56.6 | 73.4 | 71.5 | 46.1 |  |  |  |  |  | 
Oc1ncnc2[nH]ncc12 [Allopurinol] (1000 nM) | 91.5% | 109% | 124% | 100% | 106 | 101 | 94.3 | 123 | 99.7 | 103 | 119 | 109 | 112 | 100 | 108 | 98.1 | 96.2 | 107 | 106 | 105 | 98.8 | 99.2 | 107 |  |  |  |  |  | 
O=C1CN2Cc3c(ccc(Cl)c3Cl)N=C2N1 [Anagrelide] (1000 nM) | 73.6% | 113% | 104% | 103% | 102 | 90.7 | 96.8 | 88.4 | 95.1 | 94.2 | 118 | 88.7 | 98.2 | 95.8 | 102 | 95.1 | 101 | 97.9 | 101 | 98 | 93.6 | 95 | 101 |  |  |  |  |  | 
Nc1ncn([C@@H]2O[C@H](CO)[C@@H](O)[C@H]2O)c(=O)n1 [Azacitidine] (1000 nM) | 96.7% | 116% | 97.3% | 98.9% | 39 | 96.7 | 90.9 | 119 | 80.5 | 97.4 | 84.9 | 102 | 91.7 | 79.1 | 96.7 | 96.4 | 106 | 99.5 | 110 | 90.5 | 91.1 | 96.2 | 96.8 |  |  |  |  |  | 
O=NN(CCCl)C(=O)NCCCl [Carmustine] (1000 nM) | 96.9% | 102% | 105% | 105% | 96.8 | 95.5 | 99.8 | 121 | 101 | 97.8 | 101 | 102 | 96.2 | 101 | 97.6 | 101 | 97.5 | 100 | 98.3 | 98.9 | 96.6 | 91.3 | 102 |  |  |  |  |  | 
CC1=C2C[C@H]3[C@@H](CC=C4C[C@@H](O)CC[C@@]43C)[C@@H]2CC[C@]12O[C@@H]1C[C@H](C)CN[C@H]1[C@H]2C [Cyclopamine] (1000 nM) | 110% | 121% | 119% | 86.8% | 105 | 95.7 | 98.5 | 68 | 92.4 | 112 | 108 | 111 | 111 | 101 | 110 | 103 | 106 | 105 | 106 | 99.5 | 106 | 105 | 108 |  |  |  |  |  | 
CC(=O)O[C@@]12CO[C@@H]1C[C@H](O)[C@@]1(C)C(=O)[C@H](O)C3=C(C)[C@@H](OC(=O)[C@H](O)[C@@H](NC(=O)OC(C)(C)C)c4ccccc4)C[C@@](O)([C@@H](OC(=O)c4ccccc4)[C@H]21)C3(C)C [Docetaxel] (100 nM) | 18.2% and 13.8% | 13.8% and 9.08% | 22.7% and 19.8% | 26.2% and 23.4% | 36.6 | 38.3 | 68.3 | 27.4 | 16 | 28.7 | 28.5 | 13 | 10.1 | 31.6 | 40 | 67.1 | 28.1 | 31.5 | 41.5 | 34.7 | 56.3 | 36.6 | 45.3 |  |  |  |  |  | 
CC1(C)CNc2cc(NC(=O)c3cccnc3NCc3ccncc3)ccc21 [Motesanib] (1000 nM) | 105% | 99.5% | 90.3% | 75.4% | 91.5 | 91.9 | 101 | 85.7 | 97.6 | 89.1 | 98.1 | 96.4 | 80.6 | 103 | 91 | 96.6 | 93.5 | 93.6 | 96.9 | 98.4 | 92.3 | 86.4 | 101 |  |  |  |  |  | 
CC[C@@H]1C(=O)OC[C@@H]1Cc1cncn1C [Pilocarpine] (4000 nM) | 108% | 95.5% | 101% | 101% | 91.8 | 92.2 | 92.6 | 96.8 | 97.6 | 97.4 | 92.7 | 105 | 92.4 | 91.5 | 94.1 | 92 | 102 | 92.2 | 93.8 | 97 | 95.7 | 91.6 | 98.9 |  |  |  |  |  | 
CC(C)(C)c1cnc(CSc2cnc(NC(=O)C3CCNCC3)s2)o1 [SNS-032] (1000 nM) | 31.5% | 2.63% | 18.8% | 11.2% | 5.83 | 20.2 | 26.1 | 9.15 | 8.17 | 7.43 | 7.69 | 13 | 3.47 | 17.6 | 18.9 | 20.8 | 6.5 | 12.1 | 14.3 | 6.57 | 36.9 | 53.8 | 25.5 |  |  |  |  |  | 
Cn1cnc2c(F)c(Nc3ccc(Br)cc3Cl)c(C(=O)NOCCO)cc21 [Selumetinib] (1000 nM) | 91.3% | 1.82% | 92.8% | 104% | 87.8 | 67.8 | 84.7 | 110 | 96.5 | 72.5 | 93.9 | 93.4 | 86.8 | 90.7 | 92.2 | 63.8 | 107 | 85.1 | 37.6 | 4.56 | 85.1 | 79.4 | 106 |  |  |  |  |  | 
Nc1nc2[nH]cnc2c(=S)[nH]1 [Thioguanine] (1000 nM) | 108% | 117% | 93.4% | 95.2% | 95.7 | 44.8 | 59.9 | 91.9 | 94.2 | 50.7 | 82 | 78.3 | 95.4 | 83.8 | 93.7 | 66.1 | 70.3 | 99.1 | 99.8 | 88.5 | 79 | 93.4 | 94.3 |  |  |  |  |  | 
